The conditions of data set [1]: hydrolysate; as worded; cited from earlier work.
The next data set is described as follows: physchem. The source says: Therefore, propylene glycol was used as a basic solvent in the formulation of the present patent.

Structures can show the parent of a compound that is named as a salt.

With `COc1ccc([C@@H]2Sc3ccccc3N(CCN(C)C)C(=O)[C@@H]2O)cc1` [deacetyldiltiazem], the “Activity relative to the activity of diltiazem hydrochloride” value in data set [1] is 20%-40%.

By solubility is commonly meant the dissolved amount per volume that the medium holds. Turning to `COc1ccc([C@@H]2Sc3ccccc3N(CCN(C)C)C(=O)[C@@H]2OC(C)=O)cc1` [diltiazem hydrochloride, reference compound], in the data set “physchem” (organic solvent or mixture), the solubility worked out at 79 mg/mL.

As for hydroxypropyl methylcellulose, the “Solubility in propylene glycol (in words)” value in the data set “physchem” is “insoluble”.

sodium carboxymethylcellulose: in “physchem”, the “Solubility in propylene glycol (in words)” value is reported as “insoluble”.
